# Assay results taken from patent US5954858A, “Bioreactor process for the continuous removal of organic compounds from a vapor phase process stream” (North Carolina State University, priority 1996, dated 1999).
# “Also recorded” adds a separate entry of the source.
# Experiments:
# isolated soil consortia = assay: Degradability / utilization as growth substrate by isolated soil consortia; type: cell-based; conditions: utilization as carbon source for growth and energy
# Description: (§1) Using a mixed consortium of organisms isolated in liquid culture from soil samples removed from a site saturated with gasoline for a number of years, the model compounds from each of the represented species in furniture exhaust gases were examined for degradability. Degradability actually refers to the ability of the microorganisms to utilize a compound as a carbon source for growth and energy. Different carbon sources are preferred by different organisms, so it was important to determine which model compounds were acceptable for the consortium which was isolated. Following completion of these initial studies, organism subcultures were generated for specific compounds.
# Strain px-2 = assay: Oxygen uptake rate, strain px-2; type: cell-based, bacterial strain px-2
# Procedure: (§2) Experiments were conducted to examine the range of compounds degraded by enzymes present in the metabolic pathways of the strains established on meta- and para-xylene, as described in Example 7. […] The compounds listed Table 7 from benzoate through protocatechuate are enzymatic pathway intermediates in the oxidation of aromatic compounds.
# Strain mx-2 = assay: Oxygen uptake rate, strain mx-2; type: cell-based, bacterial strain mx-2
# Procedure: as §2
# [1] = Partition coefficient of solute between stripping fluid (octanol) and air; type: physicochemical
# Procedure: Before beginning work with the LIQUI-CEL® membrane modules presented in Example 2, partition coefficient experiments were performed to investigate the equilibrium distribution of m-xylene, MEK, and MIBK between phases for stripping fluid/air. Octanol was chosen as the stripping fluid because data from previously conducted studies was readily available for comparison.
# (§3) Partition coefficients are defined as a measure of the affinity a solute has for one phase over another at equilibrium. Therefore, they are an integral part of equations related to membrane contactor design and operation. Partition coefficients are expressed as a ratio of concentrations; the general form being (concentration in solvent)/(concentration in air).
# For these studies, two forms of the partition coefficient were used. The first was the general form, which indicated the level of driving force for mass transfer (a value greater than 1 indicates sufficient driving force). The second form was defined as 1/(general form), or 1/Pgen, which was used in system operating equations.
# [2] = Partition coefficient of m-xylene between natural oils and air; type: physicochemical; conditions: 31 °C
# Description: as §3
# An additional set of experiments was run to evaluate stripping fluids other than octanol. This was due mainly to the relatively high cost of commercially available octanol. Partition coefficients were determined for m-xylene in several natural oils at 31° C. […] The purchase cost of these oils is roughly one-quarter that of octanol.
# [3] = Partition coefficient of solute between octanol and water; type: physicochemical; conditions: 31 °C
# mx-2 [4] = assay: Growth rate of mx-2 strain in shake flask; type: cell-based, mx-2 bacterial strain; conditions: for effect on the growth rate: mx-2 mixed carbon source study
# Description: as §1, with “Different carbon sources are preferred by different organisms, so it was important to determine which model compounds were acceptable for the consortium which was isolated.” left out
# (§4) Maximum growth rates for the isolated consortia were determined in shake flask studies containing minimal media and supplemented with the appropriate compound. Concentrations of volatile organic compounds added to the flasks were 400 ppm (mole/mole) for MEK and MIBK, 150 ppm for m-xylene and p-xylene, and 2000 ppm for IBA and methanol.
# (§5) The effects of carbon source composition were examined for the mx-2 bacterial strain. mx-2 is one of the strains of microorganism isolated from soil samples exposed to gasoline as described in Example 7.
# (§6) In addition to examining the effects of ethanol and methanol, the impact of octanol on microorganism growth was determined. This investigation was necessary since some octanol (stripping fluid) will be delivered to the membrane bioreactor with the VHAPs/VOCs.
# mx-2 [5] = assay: m-Xylene degradation rate of mx-2 strain; type: cell-based, mx-2 bacterial strain
# Description: as §1, with “Different carbon sources are preferred by different organisms, so it was important to determine which model compounds were acceptable for the consortium which was isolated.” left out
# as §4, §5, §6
# [6] = tested on: initial gasoline consortium; assay: Enrichment of the initial gasoline consortium in individual flasks; type: cell-based, organisms isolated from gasoline-saturated soil samples
# Description: as §1
# isolated consortia = assay: Growth rate of cultures on o-xylene; type: cell-based, bacterial cultures isolated from soil samples
# Description: as §1
# as §4, with “Pure bacterial cultures (single identifiable organisms) were established on meta- and para-xylene; the other cultures consisted of approximately three different bacterial strains each. Maximum” for “Maximum”
# [7] = mx-2 on m-xylene, + 500 ppm octanol
SMILES,Degradability (isolated soil consortia),Oxygen Uptake (Strain px-2) [μmol/min-mg total protein],Oxygen Uptake (Strain mx-2) [μmol/min-mg total protein],cultures capable of degrading compound after enrichment [6],other results
C=Cc1ccccc1 [Styrene],Yes,0.47,0.55,,
CC(C)CO [Isobutyl alcohol],Yes,,,,
Cc1cccc(C)c1 [m-xylene],Yes,0.31,0.82,cultures capable of degrading each compound were developed,"Partition Coef. [oct]/[air] ([1]; 6 °C): 9,865; Partition Coef. [oct]/[air] ([1]; 22 °C): 7,978; Partition Coef. [oct]/[air] ([1]; 31 °C): 7,703; form 2 partition coefficient, Pair/oct (1/general form) ([1]; air/stripping fluid separation unit): 0.00014; Partition Coef. [solvent]/[air] ([2]; corn oil): 8,283; Partition Coef. [solvent]/[air] ([2]; mineral oil): 7,284; Partition coefficients in natural oils versus octanol ([2]; natural oils evaluated): comparable to those for octanol; Partition Coef. [solvent]/[air] ([2]; sunflower seed oil): 8,244; Partition Coef. [oct]/[water] [3]: 1,021; Specific Growth Rate (mx-2 [4]; mx-2 (strain grown on m-xylene, 150 ppm)): 0.46 hr^1; Degradation Rate (mx-2 [5]; mx-2 (grown on m-xylene, 150 ppm)): 3.60 * 10^-10 mg/(hr - cell)"
Oc1ccccc1O [Catechol],,5.19,1.23,,
Cc1cccc(O)c1O [3-Methylcatechol],,1.50,1.17,,
Cc1ccccc1 [Toluene],Yes,0.17,0.18,,
C=O [Formaldehyde],Yes,,,,
CC(C)=O [Acetone],Yes,,,,
c1ccccc1 [Benzene],,0.13,0.27,,
Cc1ccc(O)c(O)c1 [4-Methylcatechol],,4.35,0.92,,
Cc1ccc(C)cc1 [p-Xylene],Yes,0.34,1.21,cultures capable of degrading each compound were developed,
O=C(O)c1ccccc1 [Benzoate],,2.34,0.66,,
"CC(=O)CC(C)C [MIBK, methyl isobutyl ketone]",Yes,,,cultures capable of degrading each compound were developed,"Partition Coef. [oct]/[air] ([1]; 6 °C): .infin.; Partition Coef. [oct]/[air] ([1]; 22 °C): 22,045; Partition Coef. [oct]/[air] ([1]; 31 °C): 8,721; Partition Coef. [oct]/[water] [3]: 2.1"
"CCC(C)=O [MEK, methyl ethyl ketone]",Yes,,,cultures capable of degrading each compound were developed,
CCCCO [n-Butyl alcohol],Yes,,,,
CCO [Ethanol],Yes,,,,"effect on the growth rate (mx-2 [4]): negligible; Specific Growth Rate (mx-2 [4]; mx-2 on m-xylene, + 0.2% EtOH): 0.40 h⁻¹; lowering of the maximum growth rate (mx-2 [4]; mx-2 on m-xylene, in presence of ethanol): 10%; reduction of the degradation rate of m-xylene (mx-2 [5]; mx-2, in presence of ethanol): about 30%; Degradation Rate (mx-2 [5]; mx-2 on m-xylene, + 0.2% EtOH): 2.34 * 10^-10 mg/(hr - cell)"
CCCCCCCCO [octanol],,,,,"Specific Growth Rate (mx-2 [4]; 500 ppm octanol (without ""+"")): 0.20 h⁻¹; effect on the growth rate (mx-2 [4]): no effect; Specific Growth Rate (mx-2 [4]; [7]): 0.46 h⁻¹; Degradation Rate (mx-2 [5]; [7]): 3.60 * 10^-10 mg/(hr - cell); effect on the degradation rate (mx-2 [5]; test microorganism strain grown on m-xylene): no effect"
CC(=O)OCC(C)C [isobutyl acetate],,,,cultures capable of degrading each compound were developed,
Cc1ccccc1C [o-Xylene],Yes,,0.31,,growth rate compared with other compounds (isolated consortia): relatively slow compared with that on other compounds
"CO [Methanol, methanol]",Yes,,,cultures capable of degrading each compound were developed,"effect on the growth rate (mx-2 [4]): negligible; also recorded: no effect; Specific Growth Rate (mx-2 [4]; mx-2 on m-xylene, + 0.2% MeOH): 0.45 h⁻¹; Degradation Rate (mx-2 [5]; mx-2 on m-xylene, + 0.2% MeOH): 3.57 * 10^-10 mg/(hr - cell)"
